Measured values from patent publication US6815546B2, “Analogues of camptothecin, their use as medicaments and the pharmaceutical compositions containing them” (Societe de Recherches et d'Applications Scientifiques …, priority 1995, dated 2004).

Tests used:
Type in all cases: cell-based
[1] = system: L1210 (mouse lymphocytic leukemia); assay: Test on cell proliferation (MTT test), L1210; conditions: 48 hours
Experimental: (§1) a. Eight tumoral cell lines are used in this study: L1210 (mouse lymphocytic leukemia), HCT15 and LOVO (cell lines of human colon adenocarcinoma), A549 (human lung carcinoma), A172, U373 et U87 (human glioblastoma). All these lines are obtained from the American Type Culture Collection (ATCC), Rockville, Md. The L1210 cell cultures in suspension are cultured in Dulbecco's modified Eagle's medium (DMEM) (BioWhitaker, Verviers, Belgium) together with 10% of foetal calf serum inactivated by heating, 2 mM of glutamine, 50 μg/ml of penicillin and 50 μg/ml of streptomycin. The HT29 cells are cultured in mono-layer cultures in a McCoy 5a medium (Gibco, Paisley, United Kingdom) together with 10% of foetal calf serum inactivated by heat plus 2 mM of glutamine and 50 μg/ml of gentamycin. The other cells are cultured in an Earle's modified essential medium (EMEM; Gibco, Paisley, United Kingdom) together with 5% foetal calf serum inactivated by heat, 2 mM of glutamine, 50 U/ml of penicillin and 50 μg/ml of streptomycin. All the cell lines are cultured at 37° C. in a humidified atmosphere containing 95% air and 5% CO2.
(§2) Inhibition of the tumor cell line proliferation is determined using an MTT test. 1500 L1210 cells in a culture medium (according to the needs of the cell medium) are seeded in a well of a micro-well plate (tissue culture level: 96 wells, flat bottom) 24 hours before treatment with the compounds to be tested. For these dose-response studies, the cells are incubated with each of the compounds to be tested or their corresponding solvent (controls) for 48 hours over a final concentration range of 1.10^−10 to 1.10^−4 M. All the compounds are dissolved just before use in dimethylsulphoxide (DMSO) at a concentration of 50 mM. Other dilutions of the medicaments are carried out in the culture medium. The final concentration of DMSO never exceeds 0.2% (v/v). As controls, the solutions of medicaments are replaced with the solvent which is diluted successively in the same way as the compounds to be tested.
(§3) After the incubation period, the labeling reagent MTT (3-[4,5-dimethylthiazol-2-yl]-2,5-diphenyltetrazolium bromide; Thiazol blue, Sigma M 565, Sigma, St Louis, Mo.) is added at a final concentration of 0.3 mg/ml to each well. The cells are incubated for 4 hours at 37° C. in a humidified atmosphere. This stage allows the mitochondrial dehydrogenase of the living cells to convert the yellow tetrazolium salt MTT into crimson formazan crystals. The supernatant part is eliminated and the formazan crystals formed are solubilized with DMSO. The resultant coloured solution is quantified by absorbance at 570 nm by using a multi-cuvette scanning spectrophotometer. The data concerning the proliferation is expressed as a percentage of living cells in the treated wells, divided by the living cells in the controls. Each point represents the average of three independent experiments, each experiment represents six determinations.
(§4) The results are expressed as percentages of the calculated proliferation by the optical density (OD) of the cells treated with a medicament divided by the OD of the control cells (cells treated with DMSO). As represented in Table II, the compounds to be tested have inhibited the proliferation of cells in a dose-dependent manner.

[2] = system: HCT15 (cell lines of human colon adenocarcinoma); assay: Test on cell proliferation (MTT test), HCT15; conditions: 72 hours
Experimental: as §1, §2, §3
(§5) For the other cell lines (HCT15, LOVO, A549, A172, U373, U87), 1000 to 2000 cells are seeded in the well of a micro-well plate 24 hours before medicinal treatment. […]
as §4

[3] = system: LOVO (cell lines of human colon adenocarcinoma); assay: Test on cell proliferation (MTT test), LOVO; conditions: 72 hours
Experimental: as §1, §2, §3, §5, §4

[4] = system: A172 (human glioblastoma); assay: Test on cell proliferation (MTT test), A172; conditions: 72 hours
Experimental: as §1, §2, §3, §5, §4

[5] = system: U373 (human glioblastoma); assay: Test on cell proliferation (MTT test), U373; conditions: 72 hours
Experimental: as §1, §2, §3, §5, §4

CCc1c2c(nc3ccccc13)-c1cc(C(O)(CC)CC(=O)O)c(CO)c(=O)n1C2 (centres unmarked) [Example 10, 3-[12-ethyl-8-(hydroxymethyl)-9-oxo-9,11-dihydroindolizino[1,2-b]quinolin-7-yl]-3-hydroxypentanoic acid]
PERCENTAGE OF CELL PROLIFERATION ([1]; 0.1 nM): 91.51%
PERCENTAGE OF CELL PROLIFERATION ([1]; 1 nM): 97.94%
PERCENTAGE OF CELL PROLIFERATION ([1]; 10 nM): 89.28%
PERCENTAGE OF CELL PROLIFERATION ([1]; 100 nM): 67.32%
PERCENTAGE OF CELL PROLIFERATION ([1]; 1 000 nM): 31.51%
PERCENTAGE OF CELL PROLIFERATION ([1]; 10 000 nM): 19.78%
PERCENTAGE OF CELL PROLIFERATION ([1]; 100 000 nM): 3.65%
PERCENTAGE OF CELL PROLIFERATION ([2]; 0.1 nM): 111.00%
PERCENTAGE OF CELL PROLIFERATION ([2]; 1 nM): 87.00%
PERCENTAGE OF CELL PROLIFERATION ([2]; 10 nM): 103.00%
PERCENTAGE OF CELL PROLIFERATION ([2]; 100 nM): 63.00%
PERCENTAGE OF CELL PROLIFERATION ([2]; 1 000 nM): 42.00%
PERCENTAGE OF CELL PROLIFERATION ([2]; 10 000 nM): 17.00%
PERCENTAGE OF CELL PROLIFERATION ([2]; 100 000 nM): 9.00%
PERCENTAGE OF CELL PROLIFERATION ([3]; 0.1 nM): 71.00%
PERCENTAGE OF CELL PROLIFERATION ([3]; 1 nM): 76.00%
PERCENTAGE OF CELL PROLIFERATION ([3]; 10 nM): 77.00%
PERCENTAGE OF CELL PROLIFERATION ([3]; 100 nM): 52.00%
PERCENTAGE OF CELL PROLIFERATION ([3]; 1 000 nM): 29.00%
PERCENTAGE OF CELL PROLIFERATION ([3]; 10 000 nM): 18.00%
PERCENTAGE OF CELL PROLIFERATION ([3]; 100 000 nM): 4.00%
PERCENTAGE OF CELL PROLIFERATION ([4]; 0.1 nM): 93.00%
PERCENTAGE OF CELL PROLIFERATION ([4]; 1 nM): 92.00%
PERCENTAGE OF CELL PROLIFERATION ([4]; 10 nM): 91.00%
PERCENTAGE OF CELL PROLIFERATION ([4]; 100 nM): 60.00%
PERCENTAGE OF CELL PROLIFERATION ([4]; 1 000 nM): 39.00%
PERCENTAGE OF CELL PROLIFERATION ([4]; 10 000 nM): 15.00%
PERCENTAGE OF CELL PROLIFERATION ([4]; 100 000 nM): 3.00%
PERCENTAGE OF CELL PROLIFERATION ([5]; 0.1 nM): 96.00%
PERCENTAGE OF CELL PROLIFERATION ([5]; 1 nM): 104.00%
PERCENTAGE OF CELL PROLIFERATION ([5]; 10 nM): 87.00%
PERCENTAGE OF CELL PROLIFERATION ([5]; 100 nM): 35.00%
PERCENTAGE OF CELL PROLIFERATION ([5]; 1 000 nM): 20.00%
PERCENTAGE OF CELL PROLIFERATION ([5]; 10 000 nM): 10.00%
PERCENTAGE OF CELL PROLIFERATION ([5]; 100 000 nM): 2.00%
